Assay results reported in paper PMC8191315 (European Journal of Medicinal Chemistry, 2021).

Molecular target: SARS-CoV-2 RdRp (Severe acute respiratory syndrome coronavirus 2, UniProt P0DTD1)
Type: cell-based
Settings: 5 μM and 10 μM, HEK293T cells, 24 h, real-time qRT-PCR

SMILES | levels of viral plus- and minus-strand Gluc RNA
CN(Cc1ccccc1)C(=O)CSc1c[nH]c2ccccc12 [6b5, 2-((1H-indol-3-yl)thio)-N-benzyl-N-methylacetamide] | decreased the levels of viral plus- and minus-strand Gluc RNA in a dose-dependent manner
CCOc1ccccc1CN(OC)C(=O)CSc1c[nH]c2cccc(Br)c12 [6d5, N-(2-ethoxybenzyl)-2-((4-bromo-1H-indol-3-yl)thio)-N-methoxyacetamide] | decreased the levels of viral plus- and minus-strand Gluc RNA in a dose-dependent manner
COc1ccccc1CNC(=O)CSc1c[nH]c2c(-c3ccccc3)cccc12 [6c9, N-(2-methoxybenzyl)-2-((7-phenyl-1H-indol-3-yl)thio)acetamide] | decreased the levels of viral plus- and minus-strand Gluc RNA in a dose-dependent manner
O=C(CSc1c[nH]c2ccccc12)N(Cc1ccccc1)Cc1ccccc1 [6b2, N,N-dibenzyl-2-((1H-indol-3-yl)thio)acetamide] | decreased the levels of viral plus- and minus-strand Gluc RNA in a dose-dependent manner
O=C(CSc1c[nH]c2cccc(Br)c12)N(Cc1ccccc1)Cc1ccccc1 [6d2, N,N-dibenzyl-2-((4-bromo-1H-indol-3-yl)thio)acetamide] | decreased the levels of viral plus- and minus-strand Gluc RNA in a dose-dependent manner
